Assay results as given in paper PMC12661400, “Oral bioavailable ITRI-148 degrades androgen receptor variants and overcomes antiandrogen resistance in advanced prostate cancer” (Neoplasia (New York, N.Y.), 2025).
Where two headings read alike, the source gives them in different places.

Experiments:
[1] = Metabolic stability in mouse liver microsomes; format: in vitro ADME
Description: The metabolic stability of all PROTAC compounds in the screening phase (Table 1) was evaluated using mouse liver microsomes. Incubations were performed at 37 °C in phosphate buffer (pH 7.4) containing NADPH (1 mM), 0.5 mg/mL microsomal protein and 1 μM ITRI-148 (0.25 % DMSO) for 0, 5, 20, or 30 minutes, followed by quenching with acetonitrile (1:3, v/v) for HPLC analysis. To evaluate the species-specific metabolism of ITRI-148, its stability was assessed in liver microsomes from human, dog, rat, and mouse using same incubation conditions as above, with the time extending to 0, 15, 30, 45, and 60 minutes, followed by acetonitrile quenching (1:10) and LC-MS/MS analysis.

AR-V7 = molecular target: T1, AR-V7 (Homo sapiens, UniProt P10275); test: AR-V7 degradation by immunoblotting in CRPC cells; format: cell-based
T1 construct: endogenous in cells; host or cells: VCaP, CWR22Rv1
T1 sequence (P10275 1-644 isoform P10275-3): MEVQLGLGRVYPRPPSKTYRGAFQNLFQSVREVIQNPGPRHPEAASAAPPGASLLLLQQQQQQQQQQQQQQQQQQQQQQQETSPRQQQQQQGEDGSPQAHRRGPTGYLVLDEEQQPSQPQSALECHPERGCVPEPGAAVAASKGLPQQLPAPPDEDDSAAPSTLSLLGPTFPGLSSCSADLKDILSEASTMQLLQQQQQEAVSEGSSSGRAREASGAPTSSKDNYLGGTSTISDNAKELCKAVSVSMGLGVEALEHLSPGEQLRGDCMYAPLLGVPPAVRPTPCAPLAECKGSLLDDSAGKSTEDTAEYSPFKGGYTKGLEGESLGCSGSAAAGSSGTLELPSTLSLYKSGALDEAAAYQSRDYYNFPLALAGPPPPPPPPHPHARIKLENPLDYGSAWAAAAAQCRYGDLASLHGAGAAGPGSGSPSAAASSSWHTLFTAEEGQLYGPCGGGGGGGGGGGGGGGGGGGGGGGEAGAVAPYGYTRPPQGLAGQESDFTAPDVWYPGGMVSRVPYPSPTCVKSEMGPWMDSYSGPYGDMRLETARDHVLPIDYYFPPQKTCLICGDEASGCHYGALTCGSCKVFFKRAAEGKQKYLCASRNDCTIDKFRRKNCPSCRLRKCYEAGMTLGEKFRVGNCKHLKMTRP
Description: Cell lysis, Western blotting, and AR ubiquitination were performed as described in [17]. Primary antibodies: AR (Millipore 06-680), AR-V7 (RevMAb Biosciences 31-1109-00), PSA (ABclonal A4355), NKX3-1 (Cell Signaling Technology 92998), GAPDH (Cell Signaling Technology 2118) and β-Actin (Sigma-Aldrich A5441).
Fig. 1 ITRI-148 induces degradation of both AR and AR-V7 proteins in CRPC cells. […] (B) Expression of Flag-tagged AR-V7 in 293T cells following ITRI-148 treatment. Cells transiently expressing Flag-AR-V7 were pretreated with 50 μg/mL cycloheximide for 1 hour, then exposed to ITRI-148 at the indicated concentrations for 8 hours. AR-V7 expression was detected using an anti-Flag antibody. (C) Representative immunoblots showing AR protein levels in VCaP and CWR22Rv1 cells after 48 hours of ITRI-148 treatment. An N-terminal AR antibody was used to detect both full-length AR and LBD-truncated variants (AR-V(ΔLBD)) in CWR22Rv1 cells, while AR-V7 was detected using an AR-V7-specific antibody. DC₅₀ values were calculated from normalized band intensities, and Dₘₐₓ represents the maximal degradation achieved at 10 μM ITRI-148. (D) Immunofluorescence staining of AR after 24 or 48 hours of ITRI-148 treatment, detected using an N-terminal AR antibody. […] (F) Western blot analysis of ectopically expressed wild-type (WT) and mutant Myc-tagged AR in DU145 cells following 24 hours of treatment with 10 μM ITRI-148. Quantified AR levels are as indicated. TEXT PRINTED IN THE PICTURE: (C) ITRI-148: DC50 (μM) AR CWR22Rv1: 1.23 ± 1.86; DC50 (μM) AR VCaP: 0.05 ± 0.03; DC50 (μM) AR-V7 CWR22Rv1: 1.20 ± 0.92; DC50 (μM) AR-V7 VCaP: 0.02 ± 0.02; Dmax (%) AR CWR22Rv1: 65.02 ± 19.91; Dmax (%) AR VCaP: 80.49 ± 5.61; Dmax (%) AR-V7 CWR22Rv1: 72.10 ± 3.15; Dmax (%) AR-V7 VCaP: 91.36 ± 2.05

[2] = VCaP, maximal degradation at 10 μM

## O=C1CCC(N2C(=O)c3cccc(NCC(=O)N4CCC(N5CCC(C#Cc6ccc(C7CCN(C8=Nn9c(nnc9C(F)(F)F)CC8)CC7)cc6)CC5)CC4)c3C2=O)C(=O)N1 (stereo not drawn) [ITRI-148]
[1]; mice liver microsomes, 1 μM, incubation up to 60 minutes
  Remaining of intact drug (%): 80.7 ± 1.8%
[1]; mouse, liver microsomes, pH 7.4, mice microsomes, 30 min of incubation, read-out: Microsome stability (% remaining)
  remaining at 0.5 h, 1 μM: 97.2%
[1]; mouse, pH 7.4, mice liver microsomes, read-out: Plasma Stability t1/2 (microsome panel)
  half-life at 1 μM: > 1 h
AR-V7; CWR22Rv1, 48 hours, read-out: DC50 AR-V7
  DC50: 1200 ± 920 nM
AR-V7; CWR22Rv1, CWR22Rv1, maximal degradation at 10 μM
  Dmax at 10 µM: 72.1 ± 3.15%
AR-V7; VCaP cells, read-out: half-maximal degradation concentration (DC50) for AR-V7
  DC50: ~20 nM
AR-V7; VCaP, 48 hours, read-out: DC50 AR-V7
  DC50: 20 ± 20 nM
AR-V7; [2]
  Dmax AR-V7: 91%
  Dmax at 10 µM: 91.4 ± 2.05%
